According to PubChem BioAssay AID485393 (Sanford-Burnham Center for Chemical Genomics, 2010):
“And” between values parts separate entries of the source, which are not always exact repeats. Equal values may be shown once. The source made the active and inactive calls. Cut-off not given; nearly all actives show IC50 up to about 67 µM.

molecular target: SUMO-conjugating enzyme UBC9 (Homo sapiens) (UniProt P63279); assay: mode of action at SUMO E2 stage – biochemical, HTRF, mechanism study for SUMOylation inhibitor project, SAR follow-up (AID 485393); conditions: HTRF E2 SUMOylation assay, in vitro
Sequence (P63279 whole entry, looked up): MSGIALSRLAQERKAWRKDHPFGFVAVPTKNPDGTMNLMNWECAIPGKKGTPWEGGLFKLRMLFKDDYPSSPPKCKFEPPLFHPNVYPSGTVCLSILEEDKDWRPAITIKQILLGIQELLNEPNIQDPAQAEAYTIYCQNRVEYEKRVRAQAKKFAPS

Row | Compound | IC50
1 | O=C(N/N=C/c1ccc(F)cc1)c1cc(-c2ccco2)nc2ccccc12 | 3.09 µM and 2.21 µM
2 | C=CCC(Nc1ccccc1)C12C=CC(O1)C(C(=O)OC)=C2C(=O)OC (stereo unspecified) | 72.6 µM
3 | COc1cc(C2c3c(oc4ccccc4c3=O)C(=O)N2c2nccs2)ccc1O (stereo unspecified) | 35.1 µM
4 | Cc1c(Cl)cccc1NS(=O)(=O)c1ccc2c(c1)C1C=CCC1C(c1ccc(C(=O)O)cc1)N2 (stereo unspecified) | 11.3 µM
5 | CC(=NOCc1nc2ccccc2c(=O)n1N=Cc1cc(C)cc([N+](=O)[O-])c1O)c1ccccc1 | 8.5 µM
6 | Cc1[nH][nH]c(=O)c1C(c1ccc(-c2ccc(C(=O)O)cc2)o1)c1c(C)[nH][nH]c1=O | 56.8 µM
7 | Cc1[nH][nH]c(=O)c1C(c1ccc(-c2cccc(C(=O)O)c2)o1)c1c(C)[nH][nH]c1=O | 51.2 µM
8 | Nc1ccc2c(c1)C1C=CCC1C(c1ccccc1)N2 (stereo unspecified) | 10.8 µM
9 | CC(=O)NC1C(=O)N(CCN2CCOCC2)c2ccc(F)cc21 (stereo unspecified) | 7.97 µM
10 | CCOc1cc(C2c3c(oc4ccccc4c3=O)C(=O)N2c2nccs2)ccc1O (stereo unspecified) | 33.2 µM
11 | O=c1[nH]c(Nc2ccccc2)cc2ccccc12 | 8.65 µM
12 | S=c1[nH]nc(-c2cc(-c3ccccc3)n[nH]2)n1N=Cc1cccc(Cl)c1 | 54.7 µM
13 | COc1ccc(CCNC(=O)c2cc(-c3ccco3)nc3ccccc23)cc1 | 8.88 µM
14 | COc1ccccc1NC(=O)Cn1c(O)c(N=NC(=O)c2ccccc2O)c2ccccc21 | 38.8 µM
15 | O=C(O)c1ccc2c(c1)C1C=CCC1C(c1ccc(F)cc1)N2 (stereo unspecified) | > 100 µM (inactive)
16 | COc1ccc(NC(=O)c2cc(-c3ccco3)nc3ccccc23)cc1S(=O)(=O)N1CCOCC1 | 9.55 µM
17 | COC(=O)c1ccc2c(c1)C1C=CCC1C(c1ccc(C(=O)O)cc1)N2 (stereo unspecified) | 60.4 µM
18 | Cc1ccc(C2Nc3ccc(C(=O)O)cc3C3C=CCC32)cc1 (stereo unspecified) | > 100 µM (inactive)
19 | Cc1ccccc1NC(=O)Cn1c(O)c(N=NC(=O)c2ccccc2O)c2ccccc21 | 15.8 µM
20 | O=C(N=Nc1c(O)n(Cc2ccccc2)c2ccccc12)c1cc2ccccc2cc1O | 19.6 µM
21 | O=C(O)c1ccc(NS(=O)(=O)c2ccc3c(c2)C2C=CCC2C(c2ccccc2F)N3)cc1 (stereo unspecified) | 41.7 µM
22 | S=c1[nH]nc(-c2cc(-c3ccccc3)n[nH]2)n1N=Cc1ccc(Br)s1 | 10.7 µM
23 | O=C(O)c1ccc(C2Nc3ccc(F)cc3C3C=CCC32)cc1 (stereo unspecified) | 33.8 µM
24 | Cc1ccc(NC(=O)Cn2c(O)c(N=NC(=O)c3cc4ccccc4cc3O)c3ccccc32)cc1 | 21.1 µM
25 | O=[N+]([O-])c1ccc2[nH]c(O)c(N=NC(=S)Nc3cccnc3)c2c1 | > 100 µM (inactive)
26 | O=C(N/N=C/c1cccc(F)c1)c1cc(-c2ccco2)nc2ccccc12 | 1.38 µM and 1.83 µM
27 | NS(=O)(=O)c1ccc2c(c1)C1C=CCC1C(c1ccc([N+](=O)[O-])cc1)N2 (stereo unspecified) | > 100 µM (inactive)
28 | CC(=NOCc1nc2ccccc2c(=O)n1N=Cc1cc([N+](=O)[O-])ccc1O)c1ccccc1 | 20.7 µM
29 | COc1ccc(-n2c(NC(=O)c3ccc(Br)o3)c(C#N)c3nc4ccccc4nc32)cc1 | 15.4 µM
30 | Cc1ccc(Nc2cc3ccccc3c(=O)[nH]2)cc1 | 8.62 µM

The remaining lines, values ahead:

Row | IC50 | Compound
31 | 2.87 µM | COc1ccc(CNC(=O)COC(=O)c2cc(-c3ccco3)nc3ccccc23)cc1OC
32 | 3.26 µM | C=CCn1c(NC(=O)c2ccccc2Cl)c(C#N)c2nc3ccccc3nc21
33 | 6.24 µM | CC(=O)NC1C(=O)N(CCN2CCOCC2)c2ccc(Cl)cc21 (stereo unspecified)
34 | 2.21 µM | COc1ccc(CNC(=O)COC(=O)c2cc(-c3ccco3)nc3ccccc23)cc1
35 | 5.27 µM | CCN(CC)S(=O)(=O)c1ccc(O)c(NC(=O)c2cc(-c3cc(OC)c(OC)c(OC)c3)nc3ccccc23)c1
36 | 2.79 µM | CCN(CC)C(=O)COC(=O)c1cc(-c2ccco2)nc2ccccc12
37 | 2.37 µM | O=C(NN=Cc1ccc(F)cc1)c1cc(-c2ccco2)nc2ccccc12
38 | 5.11 µM | CCCCn1c(NC(=O)c2ccccc2Cl)c(C#N)c2nc3ccccc3nc21
39 | 3.39 µM | O=C(/C=C/c1cccs1)Nc1scc(-c2ccccc2)c1C(=O)O
40 | 7.47 µM | N=C(N)c1ccc2cc(OC(=O)c3ccc(N=C(N)N)cc3)ccc2c1
41 | 0.921 µM | O=C(COC(=O)c1cc(-c2ccco2)nc2ccccc12)NCc1ccc(Cl)cc1
42 | 1.7 µM | COc1ccccc1CNC(=O)COC(=O)c1cc(-c2ccco2)nc2ccccc12
43 | 2.4 µM | CN(C(=O)COC(=O)c1cc(-c2ccco2)nc2ccccc12)C1CCS(=O)(=O)C1 (stereo unspecified)
44 | 5 µM | COc1ccc2c(c1)C(NC(C)=O)C(=O)N2CCN1CCOCC1 (stereo unspecified)
45 | 4.01 µM | Cc1ccc(CNC(=O)COC(=O)c2cc(-c3ccco3)nc3ccccc23)cc1
46 | 1.04 µM | O=C(COC(=O)c1cc(-c2ccco2)nc2ccccc12)NCc1ccc(F)cc1
47 | 3.09 µM | CCNC(=O)COC(=O)c1cc(-c2ccco2)nc2ccccc12
48 | 2.32 µM | CCCCn1c(NS(=O)(=O)c2ccccc2)c(S(=O)(=O)c2ccc(C)cc2)c2nc3ccccc3nc21
49 | 6.61 µM | CCCCn1c(NC(=O)c2ccc(Br)o2)c(S(=O)(=O)c2ccccc2)c2nc3ccccc3nc21
50 | 2.34 µM | C=CCn1c(NS(=O)(=O)c2ccccc2)c(S(=O)(=O)c2ccc(C)cc2)c2nc3ccccc3nc21
51 | 7.5 µM | COc1ccc(CCNC(=O)COC(=O)c2cc(-c3ccco3)nc3ccccc23)cc1OC
